Measurements from ChEMBL document CHEMBL1201862, “PubChem BioAssay data set” (2004).
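Exposure lasted 48 hours, with cells grown in 96-well plates and compounds tested at five concentrations. GI50 is the concentration that inhibits growth by half.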 Activity calls are given as the source filed them. No stated cut-off is given here; in the data, active = GI50 up to about 1.1 µM and inactive = higher.

What was measured:
Assay in all cases: inhibition of tumour cell growth, NCI panel, 48 h
786-0 = tested on: 786-0
COLO 205 = tested on: COLO 205
DU-145 = tested on: DU-145
EKVX = tested on: EKVX
HT-29 = tested on: HT-29
Hs-578T = tested on: Hs-578T
MDA-MB-231 = tested on: MDA-MB-231
MDA-MB-435 = tested on: MDA-MB-435
MOLT-4 = tested on: MOLT-4
Malme-3M = tested on: Malme-3M
OVCAR-3 = tested on: OVCAR-3
OVCAR-5 = tested on: OVCAR-5
OVCAR-8 = tested on: OVCAR-8
U-251 = tested on: U-251
UACC-257 = tested on: UACC-257
UO-31 = tested on: UO-31
LOX IMVI = tested on: LOX IMVI
RPMI-8226 = tested on: RPMI-8226
SK-MEL-28 = tested on: SK-MEL-28
HL-60 = tested on: HL-60

Measured: GI50

Clc1cc2nn(C3CCCCO3)nc2cc1Cl (stereo not drawn)
inactive: 786-0 > 100 µM | COLO 205 > 100 µM | DU-145 > 100 µM | EKVX > 100 µM | HT-29 > 100 µM | Hs-578T > 100 µM | MDA-MB-231 > 100 µM | MDA-MB-435 > 100 µM | MOLT-4 > 100 µM | Malme-3M > 100 µM | OVCAR-3 > 100 µM | OVCAR-5 > 100 µM | OVCAR-8 > 100 µM | U-251 > 100 µM | UACC-257 > 100 µM | UO-31 > 100 µM

Cn1c(=O)c2c(n(C)c1=O)n1c(=O)c3ccccc3nc1n2C
inactive: 786-0 82.2 µM | COLO 205 > 100 µM | DU-145 > 100 µM | EKVX > 100 µM | HT-29 > 100 µM | Hs-578T 59.4 µM | LOX IMVI 83.9 µM | MDA-MB-231 > 100 µM | MDA-MB-435 > 100 µM | MOLT-4 > 100 µM | OVCAR-3 > 100 µM | OVCAR-5 > 100 µM | OVCAR-8 97.9 µM | RPMI-8226 > 100 µM | SK-MEL-28 > 100 µM | U-251 83.6 µM | UACC-257 > 100 µM | UO-31 > 100 µM

O=C(CCCc1cccc2[nH]c3c(c12)CN(Cc1ccccc1)CC3)c1ccc(F)cc1
inactive: 786-0 > 52.5 µM | COLO 205 14.4 µM | DU-145 > 100 µM | EKVX > 100 µM | HT-29 4.39 µM | Hs-578T 99.5 µM | LOX IMVI 7.85 µM | MDA-MB-231 > 40.7 µM | MDA-MB-435 40.6 µM | MOLT-4 15.3 µM | Malme-3M 40.9 µM | OVCAR-3 > 100 µM | OVCAR-5 > 48.1 µM | OVCAR-8 > 100 µM | RPMI-8226 12.8 µM | SK-MEL-28 > 100 µM | U-251 49.4 µM | UACC-257 2.61 µM | UO-31 > 33.3 µM

Fc1ccc(/C=C2\COCC3=C2NC(=S)NC3c2ccc(F)cc2)cc1 (stereo not drawn)
inactive: 786-0 18.3 µM | COLO 205 20.2 µM | DU-145 26.5 µM | EKVX 20 µM | HL-60 10.5 µM | Hs-578T 24.8 µM | LOX IMVI 19.9 µM | MDA-MB-231 18.5 µM | MDA-MB-435 18.8 µM | MOLT-4 20 µM | OVCAR-3 17.8 µM | OVCAR-5 21.1 µM | OVCAR-8 15.2 µM | RPMI-8226 16.5 µM | U-251 20.5 µM | UACC-257 18.7 µM | UO-31 17.7 µM

COC(=O)c1c(C(=O)OC)c(C(c2ccccc2)c2ccccc2)n(-c2ccccc2)c1Cl
inactive: 786-0 > 10 µM | COLO 205 6.03 µM | DU-145 > 10 µM | EKVX 5.75 µM | HL-60 4.06 µM | HT-29 4.61 µM | Hs-578T 3.43 µM | MDA-MB-231 > 10 µM | MDA-MB-435 7.16 µM | MOLT-4 2.24 µM | Malme-3M 5.79 µM | OVCAR-3 5.66 µM | OVCAR-5 > 10 µM | OVCAR-8 > 10 µM | RPMI-8226 3.35 µM | SK-MEL-28 > 10 µM | U-251 6.73 µM | UACC-257 7.14 µM | UO-31 3.81 µM

O=C(CCc1ccc(O)cc1)NCCCNC(=O)CCc1ccc(O)cc1
inactive: 786-0 > 100 µM | COLO 205 > 100 µM | DU-145 > 100 µM | HT-29 > 100 µM | Hs-578T > 100 µM | LOX IMVI > 100 µM | MDA-MB-231 > 100 µM | MDA-MB-435 > 100 µM | MOLT-4 > 100 µM | Malme-3M > 100 µM | OVCAR-3 > 100 µM | OVCAR-5 > 100 µM | OVCAR-8 > 100 µM | RPMI-8226 > 100 µM | SK-MEL-28 > 100 µM | U-251 > 100 µM | UACC-257 > 100 µM | UO-31 > 100 µM

CC(C)(C)c1cc2c(O)c(c1)C(c1ccccc1)c1cc(C(C)(C)C)cc(c1O)Cc1cc(C(C)(C)C)cc(c1O)C(c1ccccc1)c1cc(C(C)(C)C)cc(c1O)C2 (stereo not drawn)
inactive: 786-0 > 100 µM | COLO 205 > 100 µM | DU-145 > 100 µM | EKVX > 100 µM | HL-60 28.7 µM | HT-29 > 100 µM | Hs-578T > 100 µM | LOX IMVI > 100 µM | MDA-MB-231 > 100 µM | MDA-MB-435 > 100 µM | MOLT-4 > 100 µM | OVCAR-3 > 100 µM | OVCAR-5 > 100 µM | OVCAR-8 > 100 µM | SK-MEL-28 > 100 µM | U-251 > 100 µM | UACC-257 > 100 µM | UO-31 > 100 µM

COc1cc2c(cc1Cc1c(F)cccc1Cl)nc(-c1c(F)cccc1Cl)n2Cc1c(F)cccc1Cl
inactive: 786-0 24.4 µM | COLO 205 44.8 µM | DU-145 28.1 µM | EKVX 12.6 µM | HL-60 78.5 µM | HT-29 16.5 µM | Hs-578T 21.3 µM | MDA-MB-231 31.8 µM | MDA-MB-435 33.1 µM | MOLT-4 36 µM | Malme-3M 20 µM | OVCAR-3 11.6 µM | OVCAR-5 48.8 µM | OVCAR-8 36.3 µM | RPMI-8226 13.7 µM | SK-MEL-28 65.6 µM | U-251 35.2 µM | UACC-257 22.5 µM | UO-31 48.4 µM

C=CC(O)(CBr)CCC(Br)C(C)(C)Cl (stereo not drawn)
inactive: 786-0 > 10 µM | COLO 205 > 10 µM | DU-145 > 10 µM | EKVX > 10 µM | HT-29 > 10 µM | Hs-578T > 10 µM | MDA-MB-231 > 10 µM | MDA-MB-435 > 10 µM | MOLT-4 > 10 µM | Malme-3M > 10 µM | OVCAR-3 > 10 µM | OVCAR-5 > 10 µM | OVCAR-8 > 10 µM | RPMI-8226 > 10 µM | SK-MEL-28 > 10 µM | U-251 > 10 µM | UACC-257 > 10 µM | UO-31 > 10 µM

Nc1nc(N)c2ncn(Cc3ccccc3)c2n1
inactive: 786-0 > 100 µM | COLO 205 > 100 µM | DU-145 > 100 µM | EKVX 21.8 µM | HT-29 > 100 µM | Hs-578T > 100 µM | MDA-MB-231 > 100 µM | MDA-MB-435 > 100 µM | MOLT-4 > 100 µM | Malme-3M > 100 µM | OVCAR-3 > 100 µM | OVCAR-5 > 100 µM | OVCAR-8 > 100 µM | RPMI-8226 > 100 µM | SK-MEL-28 > 100 µM | U-251 > 100 µM | UACC-257 > 100 µM | UO-31 > 100 µM

CC(C)Oc1c(C2(c3ccccc3)SCCCS2)c(=O)c1=O
inactive: 786-0 > 100 µM | COLO 205 > 100 µM | DU-145 > 100 µM | EKVX > 100 µM | HL-60 > 100 µM | HT-29 > 100 µM | Hs-578T 84.7 µM | LOX IMVI > 100 µM | MDA-MB-231 > 100 µM | MDA-MB-435 > 100 µM | MOLT-4 > 100 µM | OVCAR-3 > 100 µM | OVCAR-5 > 100 µM | OVCAR-8 > 100 µM | SK-MEL-28 > 100 µM | U-251 > 100 µM | UACC-257 > 100 µM | UO-31 > 100 µM
